Assay results taken from US20210361549A1, “ANTIPERSPIRANT” (MANDOM CORPORATION, priority 2018, published 2021).

Assays:
[1] = system: secretory duct of the sweat gland (whole sweat glands); assay: Test Example 1: time-lapse imaging of isolated whole sweat glands, moving distance of nuclei after pyrocarpin stimulation; type: cell-based, human; details: for movement of the secretory duct of the sweat gland: observed in the time-lapse photographed image, antiperspirant contacted with whole sweat glands
Protocol: As skin tissues, skin tissues which were refrigerated immediately after isolating from living donors and stored at 4° C. for 15 hours were used. The skin tissues were immersed in PBS containing 10 μM staining agent (Neutral Red), to label the sweat glands included in the skin tissues. Next, the dermis of each of the skin tissues including the staining agent was finely cut to obtain dermal segments. Whole sweat glands were collected from the dermal segments by using tweezers under an optical microscope.
The whole sweat glands obtained in Test Example 1(1) were immersed in the staining reagent mixture obtained in Production Example 1 at room temperature (24° C.) for 30 minutes, to stain the whole sweat glands. The stained whole sweat glands were washed with PBS.
The washed whole sweat glands obtained in Test Example 1(2) were allowed to stand on a glass bottom dish under a stereoscopic microscope manufactured by Leica under the trade name of M125. The collagen-containing liquid obtained in Production Example 2 was added dropwise to the whole sweat glands that were allowed to stand on the glass bottom dish. Next, the above-mentioned glass bottom dish was incubated at 37° C. for 5 minutes to gelate the collagen type I-A contained in the collagen-containing liquid placed on the whole sweat glands. Thereafter, 300 μL of PBS was added onto the above-mentioned whole sweat glands so as not to dry the whole sweat glands. Thus, the whole sweat glands were held on the glass bottom dish used as a support with the collagen type I-A so that the position of each of the whole sweat glands was retained, to obtain an observation sample.
While adhesion of the whole sweat glands to the glass bottom dish with the gelated collagen type I-A was confirmed under the stereoscopic microscope, an aliquot of Dulbecco's phosphate buffer [manufactured by Gibco, Catalog No. 14190-144] was added to the glass bottom dish used as a support.
The antiperspirant obtained in Example 1 in an amount of 3 μL was contacted with the whole sweat glands on the glass bottom dish in the observation sample. The observation of the whole sweat glands on the glass bottom dish with the time-lapse imaging was initiated by using a confocal laser scanning microscope for biological uses [inverted microscope manufactured by Olympus Corporation under the trade name of IX-83 equipped with a device manufactured by Olympus Corporation under the trade name of FV 1200]. At that time, the whole sweat glands were visualized by detecting fluorescence derived from the nuclear staining reagent bound to the nuclei and fluorescence derived from the cytoskeleton-staining reagent bound to the cytoskeleton. After 600 seconds passed from the initiation of the observation, 30 μL of the sweat gland-stimulating agent obtained in Production Example 3 was contacted with the whole sweat glands on the glass bottom dish, and thereafter the observation with the time-lapse imaging was continued. […]
Next, five cells were selected from a cell group in the lumen of the secretory duct in the time-lapse photographed image of the whole sweat glands, and five cells were selected from a cell group in the outer periphery of the secretory duct. […] In order to measure a moving distance of the nuclei of the cell, firstly changes (differences) in coordinates between consecutive frames were calculated by using X-coordinate and Y-coordinate of the nuclei of each cell in accordance with the formulae (XI) and (XII): […]

[2] = system: armpit sweating of expert panelists; assay: Test Example 3: degree of sweating scored by expert panelists after application to armpit and light exercise; type: in vivo, human; details: applied to each armpit of ten expert panelists, light exercise; compared with control sample of Comparative Example 1 (PBS)
Description: The antiperspirant obtained in Example 1 is applied to each armpit of ten expert panelists having the same proficiency in evaluation skill, and then the expert panelists are subjected to a light exercise. Thereafter, each of the expert panelists gives a score of the degree of sweating on the basis of the following criteria for evaluation. In addition, each of the expert panelists gives a score of the degree of sweating in the same manner as in the above except that the control sample of Comparative Example 1 is used in place of the antiperspirant obtained in Example 1. The average of the scores given by the expert panelists is calculated.
0 point: sweat in a large amount.
2 points: slightly sweat.

[3] = system: secretory duct of the sweat gland (whole sweat glands); assay: Test Example 2: time-lapse imaging of isolated whole sweat glands, average moving distance of nuclei of secretory duct cells; type: cell-based, human; details: antiperspirant as prepared contacted first; stimulating agent of Production Example 4 (10 mM pyrocalpin); five cells; FIG. 3 to FIG. 8
Protocol: Each of the antiperspirants obtained in Examples 2 to 7 was contacted with the whole sweat glands respectively, and change of the average of moving distances of nuclei of cells of a secretory duct of the sweat gland was examined with passage of time. Whether or not nuclei of cells of the secretory duct of the sweat gland moved was determined based on the results shown in FIG. 3 to FIG. 8, and evaluated in accordance with the following criteria for evaluation. […] The maximum value of the average of moving distances of nuclei of cells of the secretory duct of the sweat gland exceeds 1 μm: the nuclei of cells of the secretory duct of the sweat glands are moved.

Row | Compound | movement of the secretory duct of the sweat gland [1] | average of the scores of the degree of sweating (0 to 4 points) [2] | movement of nuclei of cells of the secretory duct of the sweat gland (maximum of average of moving distances) [3] | further results
1 | CC1(C(=O)O)CCC2(C)CCC3(C)C(=CC(=O)C4C5(C)CCC(OC(=O)CCC(=O)O)C(C)(C)C5CCC43C)C2C1 (centres unmarked) [Example 1] | suppressed | tends to be higher |  | movement of nuclei of the cells of the lumen of the secretory duct of the sweat gland ([1]; 3 μL antiperspirant contacted first, 30 μL sweat gland-stimulating agent (100 mM pyrocarpin) after 600 seconds, FIG. 2A white circle): hardly moved; movement of nuclei of the cells of the outer periphery of the secretory duct of the sweat gland ([1]; 3 μL antiperspirant contacted first, 30 μL sweat gland-stimulating agent (100 mM pyrocarpin) after 600 seconds, FIG. 2A white triangle): hardly moved
2 | CC1(C)CC[C@]2(C(=O)O)CC[C@]3(C)C(=CC[C@@H]4[C@@]5(C)CC[C@H](O)C(C)(C)[C@@H]5CC[C@]43C)[C@@H]2C1 [Example 5, oleanolic acid] |  |  | hardly moved | 
3 | CC1(C)[C@@H](O)CC[C@]2(C)[C@H]3C(=O)C=C4[C@H]5C[C@@](C)(C(=O)O)CC[C@]5(C)CC[C@@]4(C)[C@]3(C)CC[C@@H]12 [Example 2, 18α-glycyrrhetinic acid] |  |  | hardly moved | 
4 | CC1(C(=O)O)CCC2(C)CCC3(C)C(=CC(=O)C4C5(C)CCC(O)C(C)(C)C5CCC43C)C2C1 (centres unmarked) [formula (IX)] | the same tendency as the antiperspirant obtained in Example 1 | the same tendency as the antiperspirant obtained in Example 1 |  | 
5 | β-amylin [Example 7] |  |  | hardly moved | 
6 | C[C@H]1[C@H](C)CC[C@]2(C(=O)O)CC[C@]3(C)C(=CC[C@@H]4[C@@]5(C)CC[C@H](O)C(C)(C)[C@@H]5CC[C@]43C)[C@H]12 [Example 4, ursolic acid] |  |  | hardly moved | 
7 | α-amylin [Example 6] |  |  | hardly moved | 
8 | CC1(C)[C@@H](O)CC[C@]2(C)[C@H]3C(=O)C=C4[C@@H]5C[C@@](C)(C(=O)O)CC[C@]5(C)CC[C@@]4(C)[C@]3(C)CC[C@@H]12 [Example 3, 18β-glycyrrhetinic acid] |  |  | hardly moved | 
9 | CC1(C(=O)O)CCC2(C)CCC3(C)C(=CC(=O)C4C5(C)CCC(OC6OC(C(=O)O)C(O)C(O)C6OC6OC(C(=O)O)C(O)C(O)C6O)C(C)(C)C5CCC43C)C2C1 (centres unmarked) [formula (X)] | the same tendency as the antiperspirant obtained in Example 1 | the same tendency as the antiperspirant obtained in Example 1 |  | 
